The values below come from patent publication US20050020534A1, “Method for treating diseases using HSP90-inhibiting agents in combination with antimetabolites” (Kosan Biosciences, Inc., priority 2003, published 2005).

Read-outs that look alike come from different tables or passages of the source.

The test system of series [1] is SKBr cells (human breast cancer cells). The series is described as follows: MTS cell viability assay, drug combination effect analysis (combination index) in SKBr-3 cells. It is filed as cell-based. The following applies: combination of antimetabolite with 17-AAG, CI<1 synergism, CI=1 additivity, CI>1 antagonism; for CI values, 17-AAG Pre-Administration: 17-AAG 24 hours before antimetabolite (48 hours). As to the method: Human colon adenocarcinoma cell line, DLD-1, and human breast adenocarcinoma cell line, SKBr-3, were obtained from American Type Culture Collection (manassas, Va.). […] Other cytotoxic agents were purchased commercially from suppliers such as Sigma Chemical Co. (St. Louis, Mo.) and Sequoia Research Products (Oxford, UK). Cells were seeded in duplicate in 96-well microtiter plates at a density of 5,000 cells per well and allowed to attach overnight. […] Cell viability was determined using the MTS assay (Promega). […] Based on the IC50 values of each individual drug, combined drug treatment was designed at constant ratios of two drugs, i.e., equivalent to the ratio of their IC50. Two treatment schedules were used: In one schedule, the cells were exposed to 24 hours of 17-AAG or 17-DMAG. The drug was then added to the cells and incubated for 48 hours. […] Cell viability was determined by the MTS assay. Synergism, additivity or antagonism was determined by median effect analysis using the combination index (CI) calculated using Calcusyn (Biosoft, Cambridge, UK). The combination index is defined as follows: […] The “enhancing” effect of two drugs can also be determined.

Series [2] deals with DLD-1 cells (human colorectal cancer cells). As to the kind of experiment: MTS cell viability assay, drug combination effect analysis (combination index) in DLD-1 cells. Type of series: cell-based. To be noted: combination of antimetabolite with 17-AAG, CI<1 synergism, CI=1 additivity, CI>1 antagonism; for CI values, 17-AAG Pre-Administration: 17-AAG 24 hours before antimetabolite (48 hours); for CI values, 17-AAG Post-Administration: antimetabolite 24 hours, then 17-AAG for 48 hours. On the procedure: Human colon adenocarcinoma cell line, DLD-1, and human breast adenocarcinoma cell line, SKBr-3, were obtained from American Type Culture Collection (manassas, Va.). […] Other cytotoxic agents were purchased commercially from suppliers such as Sigma Chemical Co. (St. Louis, Mo.) and Sequoia Research Products (Oxford, UK). Cells were seeded in duplicate in 96-well microtiter plates at a density of 5,000 cells per well and allowed to attach overnight. […] Cell viability was determined using the MTS assay (Promega). […] Based on the IC50 values of each individual drug, combined drug treatment was designed at constant ratios of two drugs, i.e., equivalent to the ratio of their IC50. Two treatment schedules were used: In one schedule, the cells were exposed to 24 hours of 17-AAG or 17-DMAG. The drug was then added to the cells and incubated for 48 hours. […] Cell viability was determined by the MTS assay. Synergism, additivity or antagonism was determined by median effect analysis using the combination index (CI) calculated using Calcusyn (Biosoft, Cambridge, UK). The combination index is defined as follows: […] The quantities [Dx]1 and [Dx]2 represent the concentrations of the first and second drug, respectively, that when used alone provide a response of x % in the assay. […] The “enhancing” effect of two drugs can also be determined.
For orientation: Tetrazolium dyes change colour on reduction, which living cells bring about.

In series [3] the test system is ErbB2 protein. As to the kind of experiment: Expression of ErbB2 protein in glioma cells. It is filed as cell-based.
The conditions of series [4]: clinical trials, sole therapeutic agent, cited from earlier work.
The subject of series [5] is ErbB2 protein. The series is described as follows: Expression of ErbB2 protein in SKBr3 cells. It is filed as cell-based, human.

For `O=c1[nH]cc(F)c(=O)[nH]1` [5-Fluorouracil, 5-fluorouracil], the “CI values, 17-AAG Pre-Administration” value in series [1] was 0.65 ± 0.48. In series [2], the “CI values, 17-AAG Pre-Administration” value turned out to be 0.96 ± 0.16 and the “CI values, 17-AAG Post-Administration” value is 0.33 ± 0.08.
`C=CCNC1=C2C[C@@H](C)C[C@H](OC)[C@H](O)[C@@H](C)/C=C(\C)[C@H](OC(N)=O)[C@@H](OC)/C=C\C=C(/C)C(=O)NC(=CC1=O)C2=O` [17-AAG, 17-(allylamino)-17-desmethoxygeldanamycin]: the “expression of ErbB2 protein” value in series [3] and in series [5] was “reduced the expression” each time. In addition, the MTD entry in series [4] (daily ×5 schedule) is listed as “about 40 mg/m^2”; in series [4] (once-weekly regimen) it was “about 308 mg/m^2”; in series [4] (twice-weekly regimen), “about 220 mg/m^2”.
Turning to `CO[C@H]1/C=C\C=C(/C)C(=O)NC2=CC(=O)C(NCCN(C)C)=C(C[C@@H](C)C[C@H](OC)[C@H](O)[C@@H](C)/C=C(\C)[C@@H]1OC(N)=O)C2=O` [17-DMAG, 17-(2-dimethylaminoethyl)amino-17-desmethoxygeldanamycin], the “expression of ErbB2 protein” value in series [3] and in series [5] was “reduced the expression” each time.
With `Nc1ccn([C@@H]2O[C@H](CO)[C@@H](O)C2(F)F)c(=O)n1` [Gemcitabine, gemcitabine], the “CI values, 17-AAG Pre-Administration” value in series [1] is on record as 1.79 ± 0.54; in series [2] it was 0.45 ± 0.19. Besides, the “CI values, 17-AAG Post-Administration” value is listed as 0.86 ± 0.19 in series [1] (antimetabolite 24 hours, then 17-AAG for 48 hours) and 0.77 ± 0.23 in series [2].
Regarding `CN(Cc1cnc2nc(N)nc(N)c2n1)c1ccc(C(=O)N[C@@H](CCC(=O)O)C(=O)O)cc1` [Methotrexate, methotrexate], in series [2], the “CI values, 17-AAG Pre-Administration” value is on record as 0.83 ± 0.14 and the “CI values, 17-AAG Post-Administration” value was 0.71 ± 0.35.
